{"source": "paper PMC6776382", "assay": "Two-component Cys-Cys stapling by Pd-catalysed Tsuji-Trost S-allylation with bis(allylic carbonate) Ri ((Z)-but-2-ene-1,4-diyl) or Rj (2-methylenepropane-1,3-diyl), 1.2 eq; 2.4 eq Pd(dba)2, 2.4 eq BIPHEPHOS; bis-thioether formation", "conditions": "the molecule shown is the open-chain precursor, CH3CN/H2O 2:1, 1.0 mM, 40.0 °C, 3.0 h, scale: 1 = cyclic product formed with full conversion of the linear peptide"}
{"substance": "H-Ala-Gly-Cys-Lys-Asn-Phe-Phe-Trp-Lys-Thr-Phe-Thr-Ser-Cys-OH (Cys3/Cys14 free SH; one S carries CH2C(=CH2)CH2OCO2Me from Rj at closure; two monomer peaks plus approx. 10% 2+2 dimer)", "values": [{"measurement": "ring closure, product found", "setting": "41-membered ring", "value": 1}]}
{"substance": "H-Ala-Gly-Cys-Lys-Asn-Phe-Phe-Trp-Lys-Thr-Phe-Thr-Ser-Cys-OH (Cys3/Cys14 free SH; one S carries CH2CH=CHCH2OCO2Me from Ri at closure; single product peak)", "values": [{"measurement": "ring closure, product found", "setting": "42-membered ring", "value": 1}]}
{"substance": "H-Glu-Trp-Ala-Cys-Thr-Ala-Ala-Cys-Lys-Phe-Leu-Ala-Ala-His-Ala-OH (Cys4/Cys8 free SH; one S carries CH2C(=CH2)CH2OCO2Me from Rj at closure; single product peak)", "values": [{"measurement": "ring closure, product found", "setting": "20-membered ring", "value": 1}]}
{"substance": "H-Glu-Trp-Ala-Cys-Thr-Ala-Ala-Cys-Lys-Phe-Leu-Ala-Ala-His-Ala-OH (Cys4/Cys8 free SH; one S carries CH2CH=CHCH2OCO2Me from Ri at closure; two product peaks, presumably E/Z)", "values": [{"measurement": "ring closure, product found", "setting": "21-membered ring", "value": 1}]}
{"substance": "H-Glu-Trp-Ala-Cys-Thr-Ala-Cys-Ala-Lys-Phe-Leu-Ala-Ala-His-Ala-OH (Cys4/Cys7 free SH; one S carries CH2C(=CH2)CH2OCO2Me from Rj at closure; single product peak)", "values": [{"measurement": "ring closure, product found", "setting": "17-membered ring", "value": 1}]}
{"substance": "H-Glu-Trp-Ala-Cys-Thr-Ala-Cys-Ala-Lys-Phe-Leu-Ala-Ala-His-Ala-OH (Cys4/Cys7 free SH; one S carries CH2CH=CHCH2OCO2Me from Ri at closure; two product peaks, presumably E/Z)", "values": [{"measurement": "ring closure, product found", "setting": "18-membered ring", "value": 1}]}
